# Reference: PMC2606048 (Bioorganic & medicinal chemistry letters, 2008)
# Where two headings read alike, the source gives them in different places.
# How the values were obtained:
# [1] = test system: L1210, FM3A, Molt/4 and CEM cells; test: Antiproliferative activity summarised over the panel of four cancer cell lines; type: cell-based, murine and human; conditions: for IC50: read-out: IC50 (span over the four cell lines); for Antiproliferative activity (in words): four cell lines
# tubulin = test: Inhibition of tubulin polymerization; conditions: read-out: Tubulin assembly IC50 ± SD; Tubulin was at 10 μM
# [2] = test system: human T-lymphocyte Molt4/C8 cells; test: Inhibition of proliferation of human T-lymphocyte Molt4/C8 cells; type: cell-based
# [3] = test system: murine mammary carcinoma (FM3A) cells; test: Inhibition of proliferation of murine mammary carcinoma; type: cell-based
# [4] = test system: human T-lymphocyte CEM cells; test: Inhibition of proliferation of human T-lymphocyte CEM cells; type: cell-based
# [5] = test system: murine leukemia (L1210) cells; test: Inhibition of proliferation of murine leukemia; type: cell-based
# [6] = test system: K562 (human chronic myelogenous leukemia) cells; test: Flow cytometric analysis of cell cycle distribution in K562 cells; type: cell-based; conditions: 24 h, compound at its 24 h IC50, propidium iodide
# [7] = test system: K562 (human chronic myelogenous leukemia) cells; test: K562 cell growth inhibition after 24 h; type: cell-based; conditions: read-out: IC50 determined for 24 h of growth
compound,measurement,setting,value
COc1cc(C(=O)c2c(N)sc3c2CCN(Cc2ccccc2)C3)cc(OC)c1OC [Compound 4d],IC50,[1],> 10 µM
"COc1cc(C(=O)c2c(N)sc3ccccc23)cc(OC)c1OC [Compound 2a, reference compound]",IC50,tubulin,1.9 ± 0.1 µM
COc1cc(C(=O)c2c(N)sc3c2CCN(C(=S)NC(C)C)C3)cc(OC)c1OC [Compound 4u],Antiproliferative activity (in words),[1],inactive
CCCOC(=O)N1CCc2c(sc(N)c2C(=O)c2cc(OC)c(OC)c(OC)c2)C1 [Compound 4h],fold reduction in activity on lengthening the alkyl chain (vs 4g),[2]; Molt-4 cells,1.5 fold
same,fold reduction in activity on lengthening the alkyl chain (vs 4g),[3],25 fold
same,fold reduction in activity on lengthening the alkyl chain (vs 4g),[4],3 fold
same,fold reduction in activity on lengthening the alkyl chain (vs 4g),[5]; L1210 cells,10 fold
COc1cc(C(=O)c2c(N)sc3c2CCN(C(=O)NC(C)C)C3)cc(OC)c1OC [Compound 4m],Antiproliferative activity (in words),[1],inactive
"COc1cc(C(=O)c2c(N)sc3cnccc23)cc(OC)c1OC [Compound 5, 2-amino-3-(3′,4′,5′-trim-ethoxybenzoyl)thieno[2,3-c]pyridine]",IC50,tubulin,5.4 ± 0.4 µM
same,Effect on cell cycle distribution,[6],marked increase in the percentage of cells blocked in the G2-M phase
same,IC50,"[7]; Homo sapiens, K562, 24 h",0.5 µM
same,fold less potent than 2a,[4],13 fold
CCN1CCc2c(sc(N)c2C(=O)c2cc(OC)c(OC)c(OC)c2)C1 [Compound 4b],IC50,[1],1.7 to 2.1 µM
CCCN1CCc2c(sc(N)c2C(=O)c2cc(OC)c(OC)c(OC)c2)C1 [Compound 4c],IC50,[1],> 10 µM
COc1cc(C(=O)c2c(N)sc3c2CCN(C(C)=O)C3)cc(OC)c1OC [Compound 4e],IC50,[1],1.1 to 3.9 µM
CCNC(=S)N1CCc2c(sc(N)c2C(=O)c2cc(OC)c(OC)c(OC)c2)C1 [Compound 4t],IC50,[1],4.8 to 6.9 µM
COc1cc(C(=O)c2c(N)sc3c2CCN(C(=S)NC2CCCCC2)C3)cc(OC)c1OC [Compound 4w],IC50,[1],0.73 to 1.1 µM
CNC(=S)N1CCc2c(sc(N)c2C(=O)c2cc(OC)c(OC)c(OC)c2)C1 [Compound 4s],IC50,[1],1.6 to 4.9 µM
"2-amino-3-(3,4,5-trimethoxybenzoyl)-6-methoxycarbonyl-4,5,6,7-tetrahydrothieno[b]pyridine [Compound 4f]",IC50,tubulin,0.6 ± 0.02 µM
same,fold more potent than 4g,[2]; Molt4 cells,6 fold
same,Effect on cell cycle distribution,[6],marked increase in the percentage of cells blocked in the G2-M phase
same,IC50,"[7]; K562 cells, 24 h",0.07 µM
same,fold more potent than 4g,[4],5 fold
same,fold more potent than 4g,[5]; L1210 cells,4 fold
CCOC(=O)N1CCc2c(sc(N)c2C(=O)c2cc(OC)c(OC)c(OC)c2)C1 [Compound 4g],Effect on cell cycle distribution,[6],marked increase in the percentage of cells blocked in the G2-M phase
same,IC50,[1],0.057 to 0.44 µM
same,IC50,"[7]; Homo sapiens, K562, 24 h",0.08 µM
"COc1ccc(/C=C\c2cc(OC)c(OC)c(OC)c2)cc1O [CA-4 (1), combretastatin A-4, reference compound]",IC50,"[5]; Mus musculus, L1210, read-out: IC50 L1210",0.0028 ± 0.0011 µM
COc1cc(C(=O)c2c(N)sc3c2CCN(C)C3)cc(OC)c1OC [Compound 4a],IC50,[1],> 10 µM
